Test results as given in the NIST ThermoML archive (doi:10.1016/j.fluid.2005.06.028).
Numbers after ± are expanded uncertainties.

Assay: Solid-liquid equilibrium temperature

SMILES	Solid-liquid equilibrium temperature (100 kPa, Crystal) [K]	Solid-liquid equilibrium temperature (20000 kPa, Crystal) [K]	Solid-liquid equilibrium temperature (40000 kPa, Crystal) [K]	Solid-liquid equilibrium temperature (60000 kPa, Crystal) [K]	Solid-liquid equilibrium temperature (80000 kPa, Crystal) [K]	Solid-liquid equilibrium temperature (100000 kPa, Crystal) [K]	Solid-liquid equilibrium temperature (100 kPa, Crystal 1) [K]	Solid-liquid equilibrium temperature (20000 kPa, Crystal 1) [K]	Solid-liquid equilibrium temperature (40000 kPa, Crystal 1) [K]	Solid-liquid equilibrium temperature (60000 kPa, Crystal 1) [K]	Solid-liquid equilibrium temperature (80000 kPa, Crystal 1) [K]	Solid-liquid equilibrium temperature (100000 kPa, Crystal 1) [K]
CCCCCCCCCCCCCC [tetradecane]	279.2 ± 0.9	284.2 ± 0.9	289.1 ± 0.9	293.8 ± 0.9	297.9 ± 0.9	301.7 ± 0.9	–	–	–	–	–	–
CCCCCCCCCCCCCCC [pentadecane]	283.2 ± 0.9	287.8 ± 0.9	291.9 ± 0.9	296.2 ± 0.9	300.1 ± 0.9	303.9 ± 0.9	–	–	–	–	–	–
CCCCCCCCCCCCCCCC [hexadecane]	–	–	–	–	–	–	291.5 ± 0.9	296 ± 0.9	300.4 ± 0.9	304.8 ± 0.9	309.7 ± 0.9	313.5 ± 0.9
